Assay results: the supplement of paper PMC11061612

Experiments:
[1] = compound: C1CC(C1)(C(=O)[O-])C(=O)[O-].N.N.[Pt+2] [Carboplatin]; conditions: max 10 µM
Procedure, shortened: (§1)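 Plates with 1536 wells received cancer cell lines in 7.5 μl of DMEM/F12 or RPMI containing 10% FBS. After 24 hours at 37°C and 5% CO2, cells were dosed for 72 hours with final DMSO typically 0.2%, and viability was read by CellTiter-Glo 2.0 luminescence scaled between blank-well and DMSO-well means. The single-agent IC50 was taken from a logistic fit of the dose responses made with a non-linear mixed effects model, that logistic curve having two parameters.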

[2] = compound: C1CN(CCC1(C(=O)N[C@@H](CCO)C2=CC=C(C=C2)Cl)N)C3=NC=NC4=C3C=CN4 [AZD5363]; conditions: max 10 µM
Procedure, shortened: as §1

[3] = compound: C=CCn1c(=O)c2cnc(Nc3ccc(N4CCN(C)CC4)cc3)nc2n1-c1cccc(C(C)(C)O)n1 [AZD1775]; conditions: max 3 µM
Procedure, shortened: as §1

[4] = compound: CC(=O)Nc1cccc(-n2c(=O)n(C3CC3)c(=O)c3c(Nc4ccc(I)cc4F)n(C)c(=O)c(C)c32)c1 [Trametinib]; conditions: max 1 µM
Procedure, shortened: as §1

[5] = compound: CC(=O)O[C@H]1C(=O)[C@@]2(C)[C@H]([C@H](OC(=O)c3ccccc3)[C@]3(O)C[C@H](OC(=O)[C@H](O)[C@@H](NC(=O)c4ccccc4)c4ccccc4)C(C)=C1C3(C)C)[C@]1(OC(C)=O)CO[C@@H]1C[C@@H]2O [Paclitaxel]; conditions: max 3 µM
Procedure, shortened: as §1

[6] = compound: CC(=O)c1c(C)c2cnc(Nc3ccc(N4CCNCC4)cn3)nc2n(C2CCCC2)c1=O [Palbociclib]; conditions: max 10 µM
Procedure, shortened: as §1

[7] = compound: CC(C)n1c(=O)n(C)c2cnc3cc(F)c(-c4ccc(OCCCN5CCCCC5)nc4)cc3c21 [AZD1390]; conditions: max 0.3 µM
Procedure, shortened: as §1

[8] = compound: CC1(C)CCC(CN2CCN(c3ccc(C(=O)NS(=O)(=O)c4ccc(NCC5CCOCC5)c([N+](=O)[O-])c4)c(Oc4cnc5[nH]ccc5c4)c3)CC2)=C(c2ccc(Cl)cc2)C1 [Venetoclax]; conditions: max 1 µM
Procedure, shortened: as §1

[9] = compound: CC1=C(C(=CC=C1)Cl)NC(=O)C2=CN=C(S2)NC3=CC(=NC(=N3)C)N4CCN(CC4)CCO [Dasatinib]; conditions: max 2 µM
Procedure, shortened: as §1

[10] = compound: CC1=CN2[C@@H](C1)C=NC3=CC(=C(C=C3C2=O)OC)OCCCCCOC4=C(C=C5C(=C4)N=C[C@@H]6CC(=CN6C5=O)C)OC [SG3199]; conditions: max 0.001 µM
Procedure, shortened: as §1

[11] = compound: CCN(CCO)CCCOc1ccc2c(Nc3cc(CC(=O)Nc4cccc(F)c4)[nH]n3)ncnc2c1 [AZD2811]; conditions: max 1 µM
Procedure, shortened: as §1

[12] = compound: CCc1c2c(nc3ccc(O)cc13)-c1cc3c(c(=O)n1C2)COC(=O)[C@]3(O)CC [SN-38]; conditions: max 0.3 µM
Procedure, shortened: as §1

[13] = compound: CN(C)CCCOc1ccc(-c2ccc3ncc4c(c3c2)n(C2CCOCC2)c(=O)n4C)cn1 [AZD0156]; conditions: max 3 µM
Procedure, shortened: as §1

[14] = compound: CN(CC[C@H](CSC1=CC=CC=C1)NC2=C(C=C(C=C2)S(=O)(=O)NC(=O)C3=CC=C(C=C3)N4CCC(CC4)[C@H](C5=CC=CC=C5C6=CC=C(C=C6)Cl)O)S(=O)(=O)C(F)(F)F)CCO [AZD4320]; conditions: max 1 µM
Procedure, shortened: as §1

[15] = compound: COc1cc(Nc2ncc3c(n2)-c2ccc(Cl)cc2C(c2c(F)cccc2OC)=NC3)ccc1C(=O)O [Alisertib]; conditions: max 10 µM
Procedure, shortened: as §1

[16] = compound: COc1cc([C@@H]2c3cc4c(cc3[C@@H](O[C@@H]3O[C@@H]5CO[C@@H](C)O[C@H]5[C@H](O)[C@H]3O)[C@H]3COC(=O)[C@H]23)OCO4)cc(OC)c1O [Etoposide]; conditions: max 10 µM
Procedure, shortened: as §1

[17] = compound: COc1cc2ncnc(Nc3ccc(F)c(Cl)c3)c2cc1OCCCN1CCOCC1 [Gefitinib]; conditions: max 10 µM
Procedure, shortened: as §1

[18] = compound: COc1cccc(OCCCN)c1-c1cc(Nc2cnc(C#N)cn2)n[nH]1 [Prexasertib]; conditions: max 1 µM
Procedure, shortened: as §1

[19] = compound: COc1cccc2c1C(=O)c1c(O)c3c(c(O)c1C2=O)C[C@@](O)(C(=O)CO)C[C@@H]3O[C@H]1C[C@H](N)[C@H](O)[C@H](C)O1 [Doxorubicin]; conditions: max 1 µM
Procedure, shortened: as §1

[20] = compound: COc1nnc2ccc(N3CCC(c4ccc(OCCN5CCN(C)C(=O)[C@H]5C)cc4)CC3)nn12 [AZD5153]; conditions: max 1 µM
Procedure, shortened: as §1

[21] = compound: CS(=O)(=O)CCNCc1ccc(-c2ccc3ncnc(Nc4ccc(OCc5cccc(F)c5)c(Cl)c4)c3c2)o1 [Lapatinib]; conditions: max 10 µM
Procedure, shortened: as §1

[22] = compound: C[C@@H](Nc1cc(F)cc(F)c1)c1cc(C(=O)N(C)C)cc2c(=O)cc(N3CCOCC3)oc12 [AZD8186]; conditions: max 10 µM
Procedure, shortened: as §1

[23] = compound: C[C@@H](Oc1cc(-c2cnn(C3CCNCC3)c2)cnc1N)c1c(Cl)ccc(F)c1Cl [Crizotinib]; conditions: max 10 µM
Procedure, shortened: as §1

[24] = compound: C[C@@H](c1ccc2nccn2c1)n1nnc2ncc(-c3cnn(C)c3)nc21 [Savolitinib]; conditions: max 1 µM
Procedure, shortened: as §1

[25] = compound: C[C@@H]1COCCN1C2=NC(=NC(=C2)C3(CC3)[S@](=N)(=O)C)C4=C5C=CNC5=NC=C4 [AZD6738]; conditions: max 10 µM
Procedure, shortened: as §1

[26] = compound: Cc1c2c(nn1C)CSCc1cc(n(C)n1)CSc1cc(c3ccccc3c1)OCCCc1c(C(=O)O)n(C)c3c-2c(Cl)ccc13 [AZD5991]; conditions: max 1 µM
Procedure, shortened: as §1

[27] = compound: Cc1cc2ncnn2cc1Nc1ncc2c(n1)n(C1CCOCC1)c(=O)n2C [AZD7648]; conditions: max 10 µM
Procedure, shortened: as §1

[28] = compound: Cc1nc(-c2cn3c(n2)-c2ccc(-c4cnn(C(C)(C)C(N)=O)c4)cc2OCC3)n(C(C)C)n1 [Taselisib]; conditions: max 10 µM
Procedure, shortened: as §1

[29] = compound: Cn1cnc2c(F)c(Nc3ccc(Br)cc3Cl)c(C(=O)NOCCO)cc21 [Selumetinib]; conditions: max 10 µM
Procedure, shortened: as §1

[30] = compound: N#Cc1cnc(Nc2cc(NC[C@H]3CNCCO3)c(C(F)(F)F)cn2)cn1 [SRA737]; conditions: max 10 µM
Procedure, shortened: as §1

[31] = compound: NC1(c2ccc(-c3nc4ccn5c(=O)[nH]nc5c4cc3-c3ccccc3)cc2)CCC1 [MK-2206]; conditions: max 10 µM
Procedure, shortened: as §1

[32] = compound: Nc1ccn([C@@H]2O[C@H](CO)[C@@H](O)C2(F)F)c(=O)n1 [Gemcitabine]; conditions: max 0.3 µM
Procedure, shortened: as §1

[33] = compound: O=C(Nc1ccc2[nH]nc(-c3ccncc3)c2c1)[C@@H]1CCN(CC(=O)N2CCN(c3ccc(-c4ncccn4)cc3)CC2)C1; conditions: max 5 µM
Procedure, shortened: as §1

[34] = compound: O=C(c1cc(Cc2n[nH]c(=O)c3ccccc23)ccc1F)N1CCN(C(=O)C2CC2)CC1 [Olaparib]; conditions: max 10 µM
Procedure, shortened: as §1

[35] = compound: O=c1[nH]cc(F)c(=O)[nH]1 [5-Fluorouracil]; conditions: max 20 µM
Procedure, shortened: as §1

| Cell Line | IC50, cell viability 72 h [1] [µM] | IC50, cell viability 72 h [2] [µM] | IC50, cell viability 72 h [3] [µM] | IC50, cell viability 72 h [4] [µM] | IC50, cell viability 72 h [5] [µM] | IC50, cell viability 72 h [6] [µM] | IC50, cell viability 72 h [7] [µM] | IC50, cell viability 72 h [8] [µM] | IC50, cell viability 72 h [9] [µM] | IC50, cell viability 72 h [10] [µM] | IC50, cell viability 72 h [11] [µM] | IC50, cell viability 72 h [12] [µM] | IC50, cell viability 72 h [13] [µM] | IC50, cell viability 72 h [14] [µM] | IC50, cell viability 72 h [15] [µM] | IC50, cell viability 72 h [16] [µM] | IC50, cell viability 72 h [17] [µM] | IC50, cell viability 72 h [18] [µM] | IC50, cell viability 72 h [19] [µM] | IC50, cell viability 72 h [20] [µM] | IC50, cell viability 72 h [21] [µM] | IC50, cell viability 72 h [22] [µM] | IC50, cell viability 72 h [23] [µM] | IC50, cell viability 72 h [24] [µM] | IC50, cell viability 72 h [25] [µM] | IC50, cell viability 72 h [26] [µM] | IC50, cell viability 72 h [27] [µM] | IC50, cell viability 72 h [28] [µM] | IC50, cell viability 72 h [29] [µM] | IC50, cell viability 72 h [30] [µM] | IC50, cell viability 72 h [31] [µM] | IC50, cell viability 72 h [32] [µM] | IC50, cell viability 72 h [33] [µM] | IC50, cell viability 72 h [34] [µM] | IC50, cell viability 72 h [35] [µM] |
| --- | --- | --- | --- | --- | --- | --- | --- | --- | --- | --- | --- | --- | --- | --- | --- | --- | --- | --- | --- | --- | --- | --- | --- | --- | --- | --- | --- | --- | --- | --- | --- | --- | --- | --- | --- |
| NCI-N87 (Gastric Carcinoma) | > 10 | 4.23 | 1.69 | 0.404 | 0.43 | > 10 | > 0.3 | > 1 | 1.85 | > 0.001 | > 1 | 0.0598 | > 3 | > 1 | > 10 | 6.74 | 1.96 | 0.0755 | 0.423 | > 1 | 0.077 | > 10 | > 10 | > 1 | 4.36 | > 1 | > 10 | 0.218 | > 10 | > 10 | 6.77 | 0.0887 | > 5 | > 10 | > 20 |
| VMRC-LCD (Lung Adenocarcinoma) | > 10 | > 10 | > 3 | > 1 | 0.019 | > 10 | > 0.3 | > 1 | > 2 | > 0.001 | 0.745 | > 0.3 | > 3 | > 1 | 0.668 | > 10 | > 10 | 0.115 | > 1 | 0.802 | > 10 | > 10 | 5.71 | > 1 | > 10 | > 1 | > 10 | > 10 | > 10 | > 10 | > 10 | > 0.3 | > 5 | > 10 | > 20 |
